Measured values from patent publication US8008299B2, “Urotensin II receptor antagonists” (Janssen Pharmaceutica, N.V., priority 2007, dated 2011).
Where two headings read alike, the source gives them in different places.

Experiments:
[1] = molecular target: T1, rat GPR14 (U-II receptor) (Rattus norvegicus, UniProt P49684); assay: Rat UII Calcium Mobilization FLIPR Assay; type: cell-based; details: CHO cells transfected with rat GPR14; antagonist activity after 5 min incubation vs agonist (Ac)-CFWK(2-NaI)C-NH2 at 1 nM
T1 construct: expressed in transfected cells
T1 sequence (P49684 1-386): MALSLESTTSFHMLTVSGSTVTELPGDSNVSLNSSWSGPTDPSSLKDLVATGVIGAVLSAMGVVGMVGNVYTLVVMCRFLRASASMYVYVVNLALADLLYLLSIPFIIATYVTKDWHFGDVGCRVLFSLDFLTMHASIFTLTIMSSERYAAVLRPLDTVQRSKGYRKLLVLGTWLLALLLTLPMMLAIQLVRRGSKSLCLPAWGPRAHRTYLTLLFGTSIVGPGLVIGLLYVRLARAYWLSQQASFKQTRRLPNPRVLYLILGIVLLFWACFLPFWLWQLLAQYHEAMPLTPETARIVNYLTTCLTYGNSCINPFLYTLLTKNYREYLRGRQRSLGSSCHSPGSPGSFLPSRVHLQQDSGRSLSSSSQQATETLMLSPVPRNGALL
Outline: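 Fluorescent calcium signals were recorded at room temperature (23° C) by FLIPR. Stable rat U-II receptor CHO lines had been dye-loaded for 1 h at 37° C in pH 7.4 HBSS containing 20 mM HEPES, 0.1% BSA and 2.5 mM probenecid.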

[2] = molecular target: T2, Human UII (U-II receptor) in 6D9 human rhabdomyosarcoma cells (Homo sapiens, UniProt Q9UKP6); assay: Human UII Calcium Mobilization Assay; type: cell-based; details: 6D9 human rhabdomyosarcoma cells, FLIPR TETRA, average; read-out: Human UII Ca+ Mobilization Average IC50
T2 construct: 6D9: isolated by dilution subcloning of RMS13 cells, ATCC® Number: CRL-2061; host or cells: 6D9 human rhabdomyosarcoma cells (subclone of RMS13)
T2 sequence (Q9UKP6 1-389): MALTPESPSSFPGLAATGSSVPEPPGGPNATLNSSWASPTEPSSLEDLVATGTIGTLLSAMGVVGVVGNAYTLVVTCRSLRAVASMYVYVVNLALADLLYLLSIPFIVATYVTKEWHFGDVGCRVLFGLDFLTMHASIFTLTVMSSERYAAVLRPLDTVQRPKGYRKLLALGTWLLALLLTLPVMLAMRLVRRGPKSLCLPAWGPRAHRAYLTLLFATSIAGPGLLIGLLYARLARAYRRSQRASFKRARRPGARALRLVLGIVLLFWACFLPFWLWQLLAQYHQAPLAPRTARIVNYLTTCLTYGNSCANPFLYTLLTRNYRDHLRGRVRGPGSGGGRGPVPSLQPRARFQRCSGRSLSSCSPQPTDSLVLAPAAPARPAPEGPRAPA

[3] = molecular target: T3, UT receptors in HSMM (Human Skeletal Muscle Myoblasts) (Homo sapiens, UniProt Q9UKP6); assay: Human Radioligand Binding Assay ((^125I)-U-II binding to intact HSMM)
T3 sequence (Q9UKP6 1-389): T2 sequence (Q9UKP6 1-389)

[4] = read-out: Human UII Average Binding Ki, intact HSMM, 0.150 nM (^125I)-U-II, 3 h, 25° C.

Row | Compound | IC50 [1] [nM] | IC50 [2] [nM] | Ki [3] [nM] | Ki [3, 4] [nM]
1 | CCN1CCN(c2cccc3c2CN([C@H](CCCNc2ncccn2)c2ccc(OC)c(OC)c2)C3=O)CC1 [Cpd 48, 2-[(1R)-1-(3,4-dimethoxy-phenyl)-4-(pyrimidin-2-ylamino)-butyl]-4-(4-ethyl-piperazin-1-yl)-2,3-dihydro-isoindol-1-one] | 61 | 496 | 48 | –
2 | CCN1CCN(c2cccc3c2CN([C@H](CCCNS(=O)(=O)c2cnc(C)n2C)c2ccc(OC)c(OC)c2)C3=O)CC1 [Cpd 49, 2,3-dimethyl-3H-imidazole-4-sulfonic acid {(4R)-4-(3,4-dimethoxy-phenyl)-4-[4-(4-ethyl-piperazin-1-yl)-1-oxo-1,3-dihydro-isoindol-2-yl]-butyl}-amide] | 2 | 64 | 13 | –
3 | CCN1CCN(c2cccc3c2CN([C@H](CCCOc2ccccc2)c2ccc(OC)c(OC)c2)C3=O)CC1 [Cpd 50, 2-[(1R)-1-(3,4-dimethoxy-phenyl)-4-phenoxy-butyl]-4-(4-ethyl-piperazin-1-yl)-2,3-dihydro-isoindol-1-one] | 7 | 482 | 23 | –
4 | CCN1CCN(c2cccc3c2CN([C@H](CCCOCc2ccccc2F)c2ccc(OC)c(OC)c2)C3=O)CC1 [Cpd 51, 2-[(1R)-1-(3,4-dimethoxy-phenyl)-4-(2-fluoro-benzyloxy)-butyl]-4-(4-ethyl-piperazin-1-yl)-2,3-dihydro-isoindol-1-one] | 2550 | > 10000 | > 300 | –
5 | CCN1CCN(c2cccc3c2CN([C@H](CCCNS(=O)(=O)c2cn(C)cn2)c2ccc(OC)c(OC)c2)C3=O)CC1 [Cpd 53, 1-methyl-1H-imidazole-4-sulfonic acid {(4R)-4-(3,4-dimethoxy-phenyl)-4-[4-(4-ethyl-piperazin-1-yl)-1-oxo-1,3-dihydro-isoindol-2-yl]-butyl}-amide] | 53 | 278 | 56 | –
6 | CCN1CCN(c2cccc3c2CN([C@H](CCCNC(=O)c2ccncc2)c2ccc(OC)c(OC)c2)C3=O)CC1 [Cpd 54, N-{(4R)-4-(3,4-dimethoxy-phenyl)-4-[4-(4-ethyl-piperazin-1-yl)-1-oxo-1,3-dihydro-isoindol-2-yl]-butyl}-isonicotinamide] | 81 | 628 | 77 | –
7 | CCN1CCN(c2cccc3c2CN([C@H](CCCNC(=O)c2nccn2C)c2ccc(OC)c(OC)c2)C3=O)CC1 [Cpd 56, 1-methyl-1H-imidazole-2-carboxylic acid {(4R)-4-(3,4-dimethoxy-phenyl)-4-[4-(4-ethyl-piperazin-1-yl)-1-oxo-1,3-dihydro-isoindol-2-yl]-butyl}-amide] | 79 | 699 | 125 | –
8 | CCN1CCN(c2cccc3c2CN([C@H](CCCNC(=O)c2cn(C)cn2)c2ccc(OC)c(OC)c2)C3=O)CC1 [Cpd 57, 1-methyl-1H-imidazole-4-carboxylic acid {(4R)-4-(3,4-dimethoxy-phenyl)-4-[4-(4-ethyl-piperazin-1-yl)-1-oxo-1,3-dihydro-isoindol-2-yl]-butyl}-amide] | 245 | 913 | 49 | –
9 | CCN1CCN(c2cccc3c2CN([C@H](CCCNS(N)(=O)=O)c2ccc(OC)c(OC)c2)C3=O)CC1 [Cpd 58, aminosulfonic acid {(4R)-4-(3,4-dimethoxy-phenyl)-4-[4-(4-ethyl-piperazin-1-yl)-1-oxo-1,3-dihydro-isoindol-2-yl]-butyl}-amide] | 81 | 449 | 109 | –
10 | CCN1CCN(c2cccc3c2CN([C@H](CCCNC(=O)c2cncn2C)c2ccc(OC)c(OC)c2)C3=O)CC1 [Cpd 59, 3-methyl-3H-imidazole-4-carboxylic acid {(4R)-4-(3,4-dimethoxy-phenyl)-4-[4-(4-ethyl-piperazin-1-yl)-1-oxo-1,3-dihydro-isoindol-2-yl]-butyl}-amide] | 82 | 1260 | > 300 | –
11 | CCN1CCN(c2cccc3c2CN([C@H](CCCNC(=O)c2c(C)n[nH]c2C)c2ccc(OC)c(OC)c2)C3=O)CC1 [Cpd 60, 3,5-dimethyl-1H-pyrazole-4-carboxylic acid {(4R)-4-(3,4-dimethoxy-phenyl)-4-[4-(4-ethyl-piperazin-1-yl)-1-oxo-1,3-dihydro-isoindol-2-yl]-butyl}-amide] | 16 | 130 | – | 11
12 | CCN1CCN(c2cccc3c2CN([C@H](CCCNC(=O)c2ccnnc2)c2ccc(OC)c(OC)c2)C3=O)CC1 [Cpd 61, pyridazine-4-carboxylic acid {(4R)-4-(3,4-dimethoxy-phenyl)-4-[4-(4-ethyl-piperazin-1-yl)-1-oxo-1,3-dihydro-isoindol-2-yl]-butyl}-amide] | 69 | 858 | 29 | –
13 | CCN1CCN(c2cccc3c2CN([C@H](CCCN(Cc2ccncc2)Cc2ccncc2)c2ccc(OC)c(OC)c2)C3=O)CC1 [Cpd 63, 2-[(1R)-4-(bis-pyridin-4-ylmethyl-amino)-1-(3,4-dimethoxy-phenyl)-butyl]-4-(4-ethyl-piperazin-1-yl)-2,3-dihydro-isoindol-1-one] | 7 | 20 | 8 | –
14 | CCN1CCN(c2cccc3c2CN([C@H](CCCNC(N)=O)c2ccc(OC)c(OC)c2)C3=O)CC1 [Cpd 64, {(4R)-4-(3,4-dimethoxy-phenyl)-4-[4-(4-ethyl-piperazin-1-yl)-1-oxo-1,3-dihydro-isoindol-2-yl]-butyl}-urea] | 143 | 3660 | > 300 | –
15 | COc1ccc([C@@H](CCCNS(=O)(=O)c2cccs2)N2Cc3c(cccc3N3CCN(C(C)C)CC3)C2=O)cc1OC [Cpd 65, thiophene-2-sulfonic acid {(4R)-4-(3,4-dimethoxy-phenyl)-4-[4-(4-isopropyl-piperazin-1-yl)-1-oxo-1,3-dihydro-isoindol-2-yl]-butyl}-amide] | 3 | 53 | – | 4
16 | CCN1CCN(c2cccc3c2CN([C@H](CCCNC(=O)Nc2ccccc2)c2ccc(OC)c(OC)c2)C3=O)CC1 [Cpd 66, 1-{(4R)-4-(3,4-dimethoxy-phenyl)-4-[4-(4-ethyl-piperazin-1-yl)-1-oxo-1,3-dihydro-isoindol-2-yl]-butyl}-3-phenyl-urea] | 23 | 842 | 84 | –
17 | CCN1CCN(c2cccc3c2CN([C@H](CCCNC(=O)C(F)(F)F)c2ccc(OC)c(OC)c2)C3=O)CC1 [Cpd 67, N-{(4R)-4-(3,4-dimethoxy-phenyl)-4-[4-(4-ethyl-piperazin-1-yl)-1-oxo-1,3-dihydro-isoindol-2-yl]-butyl}-2,2,2-trifluoro-acetamide] | 50 | 865 | 43 | –
18 | CCN(CC)CCC[C@H](c1ccc(OC)c(OC)c1)N1Cc2c(cccc2N2CCN(CC)CC2)C1=O [Cpd 68, 2-[(1R)-4-diethylamino-1-(3,4-dimethoxy-phenyl)-butyl]-4-(4-ethyl-piperazin-1-yl)-2,3-dihydro-isoindol-1-one] | 178 | 2040 | > 300 | –
19 | CCNCCC[C@H](c1ccc(OC)c(OC)c1)N1Cc2c(cccc2N2CCN(CC)CC2)C1=O [Cpd 69, 2-[(1R)-1-(3,4-dimethoxy-phenyl)-4-ethylamino-butyl]-4-(4-ethyl-piperazin-1-yl)-2,3-dihydro-isoindol-1-one] | 820 | > 10000 | 199 | –
